Literature values as cited in US20100130406A1, “GLYCATED MILK AND USES THEREOF” (SOMNACEUTICS LIMITED, priority 2007, published 2010).

Columns and labels:
[1] = normal (non-glycated) peptide

Q: For N[C@@H](Cc1c[nH]c2ccccc12)C(=O)O [1-tryptophane], which “quantity required for a soporific effect” value (humans) is on record?
A: about 1 g

Q: Which “quantity having a soporific effect for some people” value (humans) does the source give for COc1ccc2[nH]cc(CCNC(C)=O)c2c1 [Melatonin] here?
A: 3 to 5 mg

Q: Which “half-life in the circulation” value [1] does the source give for beta-casomorphin-7 here?
A: about a few minutes

Q: What about the “sedative and anxiolytic effects” value (rats) of the same molecule?
A: sedative and anxiolytic effects

Q: What about the “sedative and anxiolytic effects” value (chickens) of the same molecule?
A: sedative and anxiolytic effects

Q: What about the “sedative and anxiolytic effects” value (cockroaches) of the same molecule?
A: sedative and anxiolytic effects
